The values that follow come from patent US10675284B2, “Treatment of B-cell malignancies by a combination JAK and PI3K inhibitors” (Incyte Corporation, priority 2014, dated 2020).

A word on the IC50: it is the concentration at which inhibition is half-maximal.

For experiment [1], the target named is human JAK1 (a.a. 837-1142) (Homo sapiens, UniProt P23458). Nature of the experiment: In vitro JAK kinase assay (HTRF), JAK1. The experiment is classed as biochemical. In general terms: In TR-FRET formats the signal depends on donor and acceptor labels being close together.
The target of experiment [2] is human JAK2 (a.a. 828-1132) (Homo sapiens (Human), UniProt O60674). The experiment in a line: In vitro JAK kinase assay (HTRF), JAK2. Particulars: IC50 ratio, 1 mM ATP. It counts as biochemical.
In another experiment the test system is Pfeiffer cells. The experiment in a line: Western blot analysis of Pfeiffer cells. It counts as cell-based, human. Particulars: 24 hours. Here is the method:
The following materials and methods were used in the Western blot analysis infra. Cells (5 million) were lysed in a 300 μl volume of lysis buffer. Soluble fractions were collected by centrifugation. 25 μl of cell lysate were loaded into Tris-Glycine polyacrylamide gels and subjected to electrophoresis. The proteins were transferred into nitrocellulose membrane and probed with antibodies from Cell Signaling Technology for the following proteins: phospho-Stat3 Y705, phospho-Akt 5473, pim1, pim2, pim3, c-myc, phospho-p70S6K, phosho-S6, phospho-Bad S112 and actin.
IL6 and IL10 promote cell survival through the expression of Pim2, which is dependent on JAK1 activity.
Extracts were analyzed by Western blot for pAKT and pSTAT3.
(In general: Immunoblotting shows a protein as a band on a membrane.)

Like-named read-outs stand apart in the source and are kept apart here.

Sequence of human JAK1 (a.a. 837-1142) (P23458 whole entry, looked up): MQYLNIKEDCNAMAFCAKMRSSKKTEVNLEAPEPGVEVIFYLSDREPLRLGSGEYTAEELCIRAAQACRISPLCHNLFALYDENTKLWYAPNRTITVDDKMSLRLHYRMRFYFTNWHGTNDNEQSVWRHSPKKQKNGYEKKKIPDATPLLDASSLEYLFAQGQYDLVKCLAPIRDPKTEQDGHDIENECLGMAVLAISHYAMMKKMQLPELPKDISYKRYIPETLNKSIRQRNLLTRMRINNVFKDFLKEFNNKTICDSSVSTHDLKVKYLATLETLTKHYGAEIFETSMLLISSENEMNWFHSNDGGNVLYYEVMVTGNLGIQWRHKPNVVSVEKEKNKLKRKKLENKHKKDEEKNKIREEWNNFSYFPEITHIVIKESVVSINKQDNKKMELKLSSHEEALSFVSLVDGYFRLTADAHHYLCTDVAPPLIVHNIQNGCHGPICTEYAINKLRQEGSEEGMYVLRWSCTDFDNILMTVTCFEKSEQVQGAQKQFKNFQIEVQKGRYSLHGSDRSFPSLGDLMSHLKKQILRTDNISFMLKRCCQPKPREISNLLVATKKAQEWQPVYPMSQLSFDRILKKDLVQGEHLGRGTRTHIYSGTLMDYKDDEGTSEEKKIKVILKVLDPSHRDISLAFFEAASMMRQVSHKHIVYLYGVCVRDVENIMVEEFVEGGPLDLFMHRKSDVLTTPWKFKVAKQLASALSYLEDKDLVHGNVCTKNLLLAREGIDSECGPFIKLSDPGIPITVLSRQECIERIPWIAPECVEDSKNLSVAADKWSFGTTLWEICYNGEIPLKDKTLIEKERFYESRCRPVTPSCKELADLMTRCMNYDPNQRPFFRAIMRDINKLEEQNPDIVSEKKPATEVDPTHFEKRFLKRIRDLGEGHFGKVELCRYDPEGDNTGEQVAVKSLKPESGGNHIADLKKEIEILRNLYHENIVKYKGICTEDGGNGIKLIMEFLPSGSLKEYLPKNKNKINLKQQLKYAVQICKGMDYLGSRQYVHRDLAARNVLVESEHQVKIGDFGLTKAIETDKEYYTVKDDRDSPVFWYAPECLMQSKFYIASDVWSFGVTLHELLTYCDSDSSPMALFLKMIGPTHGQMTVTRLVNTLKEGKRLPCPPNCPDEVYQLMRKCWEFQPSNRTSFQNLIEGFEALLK
Sequence of human JAK2 (a.a. 828-1132) (O60674 828-1132): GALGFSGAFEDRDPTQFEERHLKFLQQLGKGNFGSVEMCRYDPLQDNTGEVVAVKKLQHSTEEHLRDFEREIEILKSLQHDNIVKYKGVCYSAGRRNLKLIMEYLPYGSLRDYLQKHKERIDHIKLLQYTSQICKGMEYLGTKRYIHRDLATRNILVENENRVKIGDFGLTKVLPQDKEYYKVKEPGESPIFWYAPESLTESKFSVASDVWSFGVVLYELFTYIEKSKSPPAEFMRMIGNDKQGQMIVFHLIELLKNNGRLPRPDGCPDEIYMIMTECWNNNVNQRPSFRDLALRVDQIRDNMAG

As to `CC(C)(O)c1cc(O[C@H]2CC[C@@H](N3CC(CC#N)(n4cc(-c5ncnc6[nH]ccc56)cn4)C3)CC2)nc(C(F)(F)F)c1` [Compound 20, {1-(cis-4-{[4-(1-hydroxy-1-methylethyl)-6-(trifluoromethyl)pyridin-2-yl]oxy}cyclohexyl)-3-[4-(7H-pyrrolo[2,3-d]pyrimidin-4-yl)-1H-pyrazol-1-yl]azetidin-3-yl}acetonitrile], the IC50 in experiment [1] (1 mM ATP, read-out: JAK1 IC50) is less than 0.01 µM. Further, in experiment [2], the JAK2/JAK1 is more than 10.

Take `CCNCc1cc(O[C@H]2CC[C@@H](N3CC(CC#N)(n4cc(-c5ncnc6[nH]ccc56)cn4)C3)CC2)nc(C(F)(F)F)c1` [Compound 19, {1-(cis-4-{[4-[(ethylamino)methyl]-6-(trifluoromethyl)pyridin-2-yl]oxy}cyclohexyl)-3-[4-(7H-pyrrolo[2,3-d]pyrimidin-4-yl)-1H-pyrazol-1-yl]azetidin-3-yl}acetonitrile]: the IC50 in experiment [1] (1 mM ATP, read-out: JAK1 IC50) was less than 0.01 µM. In experiment [2], the JAK2/JAK1 is on record as more than 10.

`N#CC[C@H](C1CCCC1)n1cc(-c2ncnc3[nH]ccc23)cn1` [ruxolitinib, (3R)-3-cyclopentyl-3-[4-(7H-pyrrolo[2,3-d]pyrimidin-4-yl)-1H-pyrazol-1-yl]propanenitrile, reference compound]: in the experiment on Pfeiffer cells, the “IL10-induced expression of Pim2” value is “blocked”.

Turning to `N#CCC1(n2cc(-c3ncnc4[nH]ccc34)cn2)CN(C2CCN(C(=O)Nc3ccc(F)cc3C(F)(F)F)CC2)C1` [Compound 8, 4-{3-(cyanomethyl)-3-[4-(7H-pyrrolo[2,3-d]pyrimidin-4-yl)-1H-pyrazol-1-yl]azetidin-1-yl}-N-[4-fluoro-2-(trifluoromethyl)phenyl]piperidine-1-carboxamide], the IC50 in experiment [1] (1 mM ATP, read-out: JAK1 IC50) was less than 0.01 µM. The JAK2/JAK1 in experiment [2] was more than 10.

In the case of `C[C@@H](O)CNCc1cc(OC2CCN([C@H]3C[C@](CC#N)(n4cc(-c5ncnc6[nH]ccc56)cn4)C3)CC2)nc(C(F)(F)F)c1` [Compound 24, {trans-3-(4-{[4-({[(2R)-2-hydroxypropyl]amino}methyl)-6-(trifluoromethyl)pyridin-2-yl]oxy}piperidin-1-yl)-1-[4-(7H-pyrrolo[2,3-d]pyrimidin-4-yl)-1H-pyrazol-1-yl]cyclobutyl}acetonitrile], the IC50 in experiment [1] (1 mM ATP, read-out: JAK1 IC50) was less than 0.01 µM. Moreover, the JAK2/JAK1 in experiment [2] is on record as more than 10.

Consider `C[C@@H](O)c1nc2cnc3ccsc3c2n1[C@H]1CC[C@H](CC#N)OC1` [Compound 1, ((2R,5S)-5-{2-[(1R)-1-hydroxyethyl]-1H-imidazo[4,5-d]thieno[3,2-b]pyridin-1-yl}tetrahydro-2H-pyran-2-yl)acetonitrile], for which the half-inhibitory concentration (IC50) in experiment [1] (1 mM ATP, read-out: JAK1 IC50) is less than 0.1 µM. Also, in experiment [2], the JAK2/JAK1 is given as more than 10.

On to `N#CCC1(n2cc(-c3ncnc4[nH]ccc34)cn2)CN([C@H]2CC[C@@H](Oc3cc(CCO)nc(C(F)(F)F)n3)CC2)C1` [Compound 18, {1-(cis-4-{[6-(2-hydroxyethyl)-2-(trifluoromethyl)pyrimidin-4-yl]oxy}cyclohexyl)-3-[4-(7H-pyrrolo[2,3-d]pyrimidin-4-yl)-1H-pyrazol-1-yl]azetidin-3-yl}acetonitrile], for which the 50% inhibitory concentration (IC50) in experiment [1] (1 mM ATP, read-out: JAK1 IC50) is less than 0.01 µM. The JAK2/JAK1 in experiment [2] is listed as more than 10.

In the case of `N#CCC(CN1CCN(C(=O)c2ccc(C#N)cc2F)CC1)n1ccc(-c2ncnc3[nH]ccc23)c1` (stereo not shown) [Compound 6, 4-[(4-{3-cyano-2-[3-(7H-pyrrolo[2,3-d]pyrimidin-4-yl)-1H-pyrrol-1-yl]propyl}piperazin-1-yl)carbonyl]-3-fluorobenzonitrile], in experiment [1] (1 mM ATP, read-out: JAK1 IC50), the half-maximal inhibitory concentration (IC50) is less than 0.01 µM. For the same compound, the JAK2/JAK1 in experiment [2] was more than 10.

As for `N#CC[C@]1(n2cc(-c3ncnc4[nH]ccc34)cn2)C[C@H](N2CCC(Oc3cc(CN4CCC[C@@H]4CO)cc(C(F)(F)F)n3)CC2)C1` [Compound 13, {trans-3-(4-{[4-{[(2R)-2-(hydroxymethyl)pyrrolidin-1-yl]methyl}-6-(trifluoromethyl)pyridin-2-yl]oxy}piperidin-1-yl)-1-[4-(7H-pyrrolo[2,3-d]pyrimidin-4-yl)-1H-pyrazol-1-yl]cyclobutyl}acetonitrile], the IC50 in experiment [1] (1 mM ATP, read-out: JAK1 IC50) was less than 0.01 µM. The JAK2/JAK1 in experiment [2] is reported as more than 10.

Regarding `C[C@H](O)CNCc1cc(OC2CCN([C@H]3C[C@](CC#N)(n4cc(-c5ncnc6[nH]ccc56)cn4)C3)CC2)nc(C(F)(F)F)c1` [Compound 25, {trans-3-(4-{[4-({[(2S)-2-hydroxypropyl]amino}methyl)-6-(trifluoromethyl)pyridin-2-yl]oxy}piperidin-1-yl)-1-[4-(7H-pyrrolo[2,3-d]pyrimidin-4-yl)-1H-pyrazol-1-yl]cyclobutyl}acetonitrile], the half-maximal inhibitory concentration (IC50) in experiment [1] (1 mM ATP, read-out: JAK1 IC50) was less than 0.01 µM. The JAK2/JAK1 in experiment [2] is more than 10.

For `N#CC[C@]1(n2cc(-c3ncnc4[nH]ccc34)cn2)C[C@H](N2CCC(Oc3cc(CCO)cc(C(F)(F)F)n3)CC2)C1` [Compound 26, {trans-3-(4-{[4-(2-hydroxyethyl)-6-(trifluoromethyl)pyridin-2-yl]oxy}piperidin-1-yl)-1-[4-(7H-pyrrolo[2,3-d]pyrimidin-4-yl)-1H-pyrazol-1-yl]cyclobutyl}acetonitrile], the IC50 in experiment [1] (1 mM ATP, read-out: JAK1 IC50) was less than 0.01 µM. Also, in experiment [2], the JAK2/JAK1 is given as more than 10.

Regarding `N#CCC1(n2cc(-c3ncnc4[nH]ccc34)cn2)CN([C@H]2CC[C@@H](Oc3cc(CN4CC[C@@H](O)C4)cc(C(F)(F)F)n3)CC2)C1` [Compound 21, {1-(cis-4-{[4-{[(3R)-3-hydroxypyrrolidin-1-yl]methyl}-6-(trifluoromethyl)pyridin-2-yl]oxy}cyclohexyl)-3-[4-(7H-pyrrolo[2,3-d]pyrimidin-4-yl)-1H-pyrazol-1-yl]azetidin-3-yl}acetonitrile], the IC50 in experiment [1] (1 mM ATP, read-out: JAK1 IC50) is less than 0.01 µM. Also, in experiment [2], the JAK2/JAK1 is listed as more than 10.

Consider `N#CCC(CN1CCN(C(=O)c2ccc(C#N)cc2F)CC1)n1cc(-c2ncnc3[nH]ccc23)cn1` (stereo not shown) [Compound 5, 4-[(4-{3-cyano-2-[4-(7H-pyrrolo[2,3-d]pyrimidin-4-yl)-1H-pyrazol-1-yl]propyl}piperazin-1-yl)carbonyl]-3-fluorobenzonitrile], for which the half-inhibitory concentration (IC50) in experiment [1] (1 mM ATP, read-out: JAK1 IC50) was less than 0.01 µM. The JAK2/JAK1 in experiment [2] is given as more than 10.

For the compound `N#CC[C@]1(n2cc(-c3ncnc4[nH]ccc34)cn2)C[C@H](N2CCC(Oc3cc(CN4CC(O)C4)cc(C(F)(F)F)n3)CC2)C1` [Compound 11, {trans-3-(4-{[4-[(3-hydroxyazetidin-1-yl)methyl]-6-(trifluoromethyl)pyridin-2-yl]oxy}piperidin-1-yl)-1-[4-(7H-pyrrolo[2,3-d]pyrimidin-4-yl)-1H-pyrazol-1-yl]cyclobutyl}acetonitrile], the IC50 in experiment [1] (1 mM ATP, read-out: JAK1 IC50) was less than 0.01 µM.

As for `N#CC[C@]1(n2cc(-c3ncnc4[nH]ccc34)cn2)C[C@H](N2CCN(C(=O)c3ccnc(C(F)(F)F)n3)CC2)C1` [Compound 10, [trans-1-[4-(7H-pyrrolo[2,3-d]pyrimidin-4-yl)-1H-pyrazol-1-yl]-3-(4-{[2-(trifluoromethyl)pyrimidin-4-yl]carbonyl}piperazin-1-yl)cyclobutyl]acetonitrile], in experiment [1] (1 mM ATP, read-out: JAK1 IC50), the half-maximal inhibitory concentration (IC50) is less than 0.01 µM. Besides, the JAK2/JAK1 in experiment [2] is on record as more than 10.

Turning to `N#CCC1(n2cc(-c3ncnc4[nH]ccc34)cn2)CN([C@H]2CC[C@@H](Oc3cc(CN4CC[C@H](O)C4)cc(C(F)(F)F)n3)CC2)C1` [Compound 22, {1-(cis-4-{[4-{[(3S)-3-hydroxypyrrolidin-1-yl]methyl}-6-(trifluoromethyl)pyridin-2-yl]oxy}cyclohexyl)-3-[4-(7H-pyrrolo[2,3-d]pyrimidin-4-yl)-1H-pyrazol-1-yl]azetidin-3-yl}acetonitrile], the 50% inhibitory concentration (IC50) in experiment [1] (1 mM ATP, read-out: JAK1 IC50) is less than 0.01 µM. Moreover, the JAK2/JAK1 in experiment [2] is more than 10.

Regarding `N#CC[C@]1(n2cc(-c3ncnc4[nH]ccc34)cn2)C[C@H](N2CCC(Oc3cc(CN4CCC[C@H]4CO)cc(C(F)(F)F)n3)CC2)C1` [Compound 12, {trans-3-(4-{[4-{[(2S)-2-(hydroxymethyl)pyrrolidin-1-yl]methyl}-6-(trifluoromethyl)pyridin-2-yl]oxy}piperidin-1-yl)-1-[4-(7H-pyrrolo[2,3-d]pyrimidin-4-yl)-1H-pyrazol-1-yl]cyclobutyl}acetonitrile], the concentration for half-maximal inhibition (IC50) in experiment [1] (1 mM ATP, read-out: JAK1 IC50) is less than 0.01 µM. Further, in experiment [2], the JAK2/JAK1 was more than 10.

Take `N#CCC(C1CCN(c2cccc(Cl)n2)C1)n1cc(-c2ncnc3[nH]ccc23)cn1` (single isomer, unassigned) [Compound 3, 3-[1-(6-chloropyridin-2-yl)pyrrolidin-3-yl]-3-[4-(7H-pyrrolo[2,3-d]pyrimidin-4-yl)-1H-pyrazol-1-yl]propanenitrile]: the IC50 in experiment [1] is less than 0.01 µM. The JAK2/JAK1 in experiment [2] was more than 10.

`N#CCC(C1CCN(c2nc3cccnc3o2)C1)n1cc(-c2ncnc3[nH]ccc23)cn1` (stereo not shown) [Compound 4, 3-(1-[1,3]oxazolo[5,4-b]pyridin-2-ylpyrrolidin-3-yl)-3-[4-(7H-pyrrolo[2,3-d]pyrimidin-4-yl)-1H-pyrazol-1-yl]propanenitrile]: the IC50 in experiment [1] (1 mM ATP, read-out: JAK1 IC50) was less than 0.01 µM. The JAK2/JAK1 in experiment [2] was more than 10.

Consider `N#CCC1(n2cc(-c3ncnc4[nH]ccc34)cn2)CN(C2CCN(C(=O)c3ccnc(C(F)(F)F)n3)CC2)C1` [Compound 9, [3-[4-(7H-pyrrolo[2,3-d]pyrimidin-4-yl)-1H-pyrazol-1-yl]-1-(1-{[2-(trifluoromethyl)pyrimidin-4-yl]carbonyl}piperidin-4-yl)azetidin-3-yl]acetonitrile], for which the 50% inhibitory concentration (IC50) in experiment [1] (1 mM ATP, read-out: JAK1 IC50) is less than 0.01 µM. The JAK2/JAK1 in experiment [2] is more than 10.

Consider `C[C@@H](CO)NCc1cc(OC2CCN([C@H]3C[C@](CC#N)(n4cc(-c5ncnc6[nH]ccc56)cn4)C3)CC2)nc(C(F)(F)F)c1` [Compound 23, {trans-3-(4-{[4-({[(1S)-2-hydroxy-1-methylethyl]amino}methyl)-6-(trifluoromethyl)pyridin-2-yl]oxy}piperidin-1-yl)-1-[4-(7H-pyrrolo[2,3-d]pyrimidin-4-yl)-1H-pyrazol-1-yl]cyclobutyl}acetonitrile], for which the IC50 in experiment [1] (1 mM ATP, read-out: JAK1 IC50) was less than 0.01 µM. For the same compound, the JAK2/JAK1 in experiment [2] is recorded as more than 10.
